± gives the expanded uncertainty stated by the source.
Conditions: Liquid, Vibrating tube method

CCCCn1cc[n+](C)c1.CCCCn1cc[n+](C)c1.[Co+2].[N-]=C=S.[N-]=C=S.[N-]=C=S.[N-]=C=S [bis(1-butyl-3-methylimidazolium) tetrathiocyanatocobaltate]
mass density [kg/m3]
Conditions	283.16 K	293.13 K	303.17 K	313.17 K	323.18 K	333.15 K	343.14 K	353.13 K	363.14 K
100 kPa	1233.1 ± 1.4	1226.4 ± 1.3	1219.6 ± 1.3	1212.6 ± 1.3	1205.8 ± 1.3	1199 ± 1.3	1192.4 ± 1.3	1185.8 ± 1.2	1179.2 ± 1.2
1000 kPa	1233.5 ± 1.4	1226.9 ± 1.3	1220.1 ± 1.3	1213.2 ± 1.3	1206.3 ± 1.3	1199.5 ± 1.3	1192.9 ± 1.3	1186.3 ± 1.3	1179.8 ± 1.2
2000 kPa	1233.9 ± 1.4	1227.4 ± 1.4	1220.5 ± 1.3	1213.6 ± 1.3	1206.8 ± 1.3	1200.1 ± 1.3	1193.5 ± 1.3	1186.9 ± 1.3	1180.3 ± 1.2
5000 kPa	1235.3 ± 1.4	1228.9 ± 1.4	1222.1 ± 1.4	1215.2 ± 1.4	1208.3 ± 1.3	1201.8 ± 1.3	1195.1 ± 1.3	1188.6 ± 1.3	1182 ± 1.3
7000 kPa	1236.2 ± 1.4	1229.7 ± 1.4	1222.9 ± 1.4	1216.2 ± 1.4	1209.4 ± 1.4	1202.7 ± 1.3	1196.2 ± 1.3	1189.6 ± 1.3	1183.2 ± 1.3
10000 kPa	1237.6 ± 1.5	1231.1 ± 1.4	1224.3 ± 1.4	1217.7 ± 1.4	1210.8 ± 1.4	1204.2 ± 1.4	1197.7 ± 1.3	1191.2 ± 1.3	1184.8 ± 1.3
15000 kPa	1239.8 ± 1.5	1233.5 ± 1.5	1226.8 ± 1.5	1220.1 ± 1.5	1213.3 ± 1.4	1206.7 ± 1.4	1200.4 ± 1.4	1193.8 ± 1.4	1187.5 ± 1.4
20000 kPa	1241.9 ± 1.6	1235.6 ± 1.5	1229.1 ± 1.5	1222.5 ± 1.5	1215.8 ± 1.5	1209.2 ± 1.5	1202.8 ± 1.4	1196.5 ± 1.4	1190 ± 1.4
25000 kPa	1244 ± 1.6	1237.6 ± 1.6	1231.3 ± 1.6	1224.8 ± 1.6	1218.1 ± 1.5	1211.6 ± 1.5	1205.1 ± 1.5	1198.9 ± 1.5	1192.6 ± 1.4
30000 kPa	1245.9 ± 1.7	1239.7 ± 1.6	1233.5 ± 1.6	1226.9 ± 1.6	1220.5 ± 1.6	1213.9 ± 1.6	1207.5 ± 1.5	1201.3 ± 1.5	1195 ± 1.5
35000 kPa	1248 ± 1.7	1241.8 ± 1.7	1235.6 ± 1.7	1229.1 ± 1.7	1222.8 ± 1.6	1216.2 ± 1.6	1209.8 ± 1.6	1203.6 ± 1.6	1197.4 ± 1.5
40000 kPa	1250.1 ± 1.8	1243.8 ± 1.8	1237.7 ± 1.7	1231.3 ± 1.7	1224.9 ± 1.7	1218.3 ± 1.7	1212.2 ± 1.6	1205.9 ± 1.6	1199.9 ± 1.6
45000 kPa	1251.9 ± 1.8	1245.9 ± 1.8	1239.7 ± 1.8	1233.3 ± 1.8	1227 ± 1.7	1220.5 ± 1.7	1214.4 ± 1.7	1208.1 ± 1.7	1202.2 ± 1.6
50000 kPa	1253.9 ± 1.9	1248 ± 1.9	1241.7 ± 1.8	1235.3 ± 1.8	1229.1 ± 1.8	1222.8 ± 1.8	1216.4 ± 1.7	1210.5 ± 1.7	1204.5 ± 1.7
55000 kPa	1255.8 ± 2	1250 ± 1.9	1243.6 ± 1.9	1237.4 ± 1.9	1231.1 ± 1.8	1224.9 ± 1.8	1218.6 ± 1.8	1212.8 ± 1.8	1206.7 ± 1.7
60000 kPa	1257.6 ± 2	1251.9 ± 2	1245.6 ± 2	1239.4 ± 1.9	1233.2 ± 1.9	1227 ± 1.9	1220.7 ± 1.8	1215.1 ± 1.8	1208.9 ± 1.8
65000 kPa	1259.4 ± 2.1	1253.8 ± 2	1247.5 ± 2	1241.3 ± 2	1235.1 ± 1.9	1229.1 ± 1.9	1222.9 ± 1.9	1216.9 ± 1.9	1211.2 ± 1.8
70000 kPa	1261.3 ± 2.1	1255.5 ± 2.1	1249.4 ± 2.1	1243.4 ± 2	1237.2 ± 2	1231 ± 2	1225 ± 1.9	1219 ± 1.9	1213.2 ± 1.9
75000 kPa	1263.2 ± 2.2	1257.4 ± 2.2	1251.3 ± 2.1	1245.2 ± 2.1	1239.2 ± 2.1	1233 ± 2	1227 ± 2	1221.1 ± 2	1215.3 ± 1.9
80000 kPa	1264.9 ± 2.2	1259.1 ± 2.2	1253.1 ± 2.2	1247 ± 2.2	1241 ± 2.1	1235.1 ± 2.1	1229.1 ± 2.1	1223.1 ± 2	1217.3 ± 2
85000 kPa	1266.6 ± 2.3	1261 ± 2.3	1254.8 ± 2.2	1248.9 ± 2.2	1242.9 ± 2.2	1236.9 ± 2.1	1231 ± 2.1	1225.2 ± 2.1	1219.3 ± 2
90000 kPa	1268.4 ± 2.4	1262.6 ± 2.3	1256.7 ± 2.3	1250.6 ± 2.3	1244.8 ± 2.2	1238.9 ± 2.2	1232.8 ± 2.2	1227.1 ± 2.1	1221.4 ± 2.1
95000 kPa	1270.1 ± 2.4	1264.4 ± 2.4	1258.5 ± 2.4	1252.5 ± 2.3	1246.5 ± 2.3	1240.7 ± 2.3	1234.8 ± 2.2	1229.1 ± 2.2	1223.3 ± 2.2

Source: the NIST ThermoML archive (doi:10.1021/acs.jced.9b00334)
